# According to patent US20220323443A1, “COMBINATION THERAPY FOR CANCER TREATMENT” (TAKEDA PHARMACEUTICAL COMPANY LIMITED, priority 2019, published 2022):
# Experiments:
# Panc02 (Pancreatic) = experiment: In vivo combination study, syngeneic mouse tumor isograft model
# Protocol: (§1) To investigate in vivo antitumor activity of Compound 1 in combination with other agents, tests using Cell Derived Xenograft (CDX), Patient Derived Xenograft (PDX) and Syngeneic mouse tumor isograft model were conducted. Cells or Patient Derived Tumors were inoculated by one method of the following two methods (Method A and B) as shown Table 7.
# (§2) Method A; Cells were maintained in either immune deficient nude mice or immune competent mice by subcutaneous inoculation of tumor cells at various concentrations into respected mice. Method B: Patient Derived Tumor s were maintained in nude mice by subcutaneous inoculation of tumor pieces (approx. 2×2×2 mm) into nude mice. Mice with tumor size of approximately 50 mm^3 (e.g., 40-75 mm^3) for syngeneic mouse studies or 200 mm^3 (e.g., 110-270 mm^3) for xenograft studies were randomly assigned to dose groups on the day (Day 0) before start date of dosing.
# (§3) Compound 1 (crystalline form I) was suspended in 0.5 w/v % methylcellulose and administered orally to mice. Antibodies which administered in the experiment were described in Table 8.
# (§4) Tumor size was measured by caliper and tumor volume was estimated using the equation V=(LW^2)/2, where L and W are tumor length and width, respectively and reported in cubic millimeters.
# (§5) These values were compared across treatment groups to assess whether the differences in the trends over time were statistically significant. To compare pairs of treatment groups, the following mixed-effects linear regression model was fit to the data using the maximum likelihood method:
# (§6) For synergy analyses, the observed differences in the log tumor values were used to calculate AUC values for each animal. In instances when an animal in a treatment group was removed from the study, the last observed tumor value was carried forward through all subsequent time points. The AUC for the control, or vehicle, group was calculated using the predicted values from the pairwise models described above. We defined a measure of synergy as follows:
# (§7) where Ak and Bk are the k^th animal in the individual treatment groups and ABk is the k^th animal in combination treatment group. AUCcd is the model-predicted AUC for the control group and was treated as a constant with no variability. The standard error of the synergy score was calculated as the square root of the sum of squared standard errors across groups A, B, and AB. The degrees of freedom were estimated using the Welch-Satterthwaite equation. A hypothesis test was performed to determine if the synergy score differed from 0. P values were calculated by dividing the synergy score by its standard error and tested against a t-distribution (two-tailed) with the above-calculated degrees of freedom.
# (§8) The effect was classified into four different categories. It was considered synergistic if the synergy score was less than 0 and additive if the synergy score wasn't statistically different from 0. If the synergy score was greater than zero, but the mean AUC for the combination was lower than the lowest mean AUC among the two single agent treatments, then the combination was sub-additive. If the synergy score was greater than zero, and the mean AUC for the combination was greater than the mean AUC for at least one of the single agent treatments, then the combination was antagonistic.
# DU-145 (Prostate) = experiment: In vivo combination study, Cell Derived Xenograft; design: species or system mouse; details: DU-145 (165 mm^3); Compound 1 60 mg/kg once daily Day 1-21; drug 40 mg/kg intraperitoneally Days 1,4,8,11,15,18
# Protocol: as §1
# Method A; Cells were maintained in either immune deficient nude mice or immune competent mice by subcutaneous inoculation of tumor cells at various concentrations into respected mice. Method B: Patient Derived Tumor s were maintained in nude mice by subcutaneous inoculation of tumor pieces (approx. 2×2×2 mm) into nude mice. […]
# Tumor size was measured by caliper and tumor volume was estimated using the equation V=(LW^2)/2, where L and W are tumor length and width, respectively and reported in cubic millimeters. […]
# For synergy analyses, the observed differences in the log tumor values were used to calculate AUC values for each animal. […] The AUC for the control, or vehicle, group was calculated using the predicted values from the pairwise models described above. […]
# where Ak and Bk are the k^th animal in the individual treatment groups and ABk is the k^th animal in combination treatment group. […] The standard error of the synergy score was calculated as the square root of the sum of squared standard errors across groups A, B, and AB. […]
# PHTXM-97Pa (Pancreatic) = experiment: In vivo combination study, Patient Derived Xenograft; design: species or system mouse
# Protocol: as §1, §2, §3, §4, §5, §6, §7, §8
# [1] = system: PHTX-249Pa human primary pancreatic xenografts; experiment: as above; design: species or system mouse
# Protocol: as §1, §2, §3, §4, §5, §6, §7, §8
# A549 cancer cells = experiment: In vitro combination study with Compound 1, Cell Titer-Glo (ATP) cell viability, 72 h; assay type: cell-based; details: DNA damaging agent combined with Compound 1; 72 h;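 further: Ten-by-ten dose matrices of the two agents in duplicate, compounds added 16 h post-plating, activity relative to DMSO vehicle wells, call reflects synergy evaluation from luminescence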
# [2] = system: ovarian cancer (SKOV3) cell line; experiment: In vitro combination study for selected compounds, additional cell lines; assay type: cell-based; details: drug combined with Compound 1
# Protocol: (§9) In vitro anti-proliferative effects of selected compounds were tested in additional cell lines, including ovarian cancer (SKOV3) and pancreatic cancer (MIA-PACA-2) cell lines.
# CALU6 (Lung) = experiment: as above; assay type: cell-based; details: drug combined with Compound 1
# Protocol: as §9
# H-1650 (Lung) = experiment: as above; assay type: cell-based; details: drug combined with Compound 1
# Protocol: as §9
# HCT116 cancer cells = experiment: In vitro combination study with Compound 1, Cell Titer-Glo (ATP) cell viability, 72 h; assay type: cell-based; details: DNA damaging agent combined with Compound 1; 72 h;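 further: combination call from 10×10 dose matrices in duplicate, graded by synergy, with percent activity per well relative to DMSO vehicle controls on the same plate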
# Protocol: (§10) Each combination pair was evaluated in an individual 384-well plate which contained variable doses of both compounds as single agents, as well as two, ten-by-ten matrices (in duplicate) that contained mixtures of the two test compounds. In brief, compounds were added to the cell test plates 16 hours after cell plating and then assessed for viability 72 hours later. Continuous cultures of tumor cells were maintained under standard cell culturing conditions (i.e. in a humidified chamber set at 37° C., containing atmosphere 5% carbon dioxide). […] Seventy-two hours after compound addition, ATP levels were measured to assess cell viability. Plating densities were chosen to ensure optimal linear growth over the 72 hour period.
# (§11) Compound dilution and compound delivery to the assay plates were done on HighRes Robotic System (HighRes Biosolutions, Woburn, Mass., USA) with Echo™ Liquid Handler (Labcyte, Sunnyvale, Calif., USA). […] Next, these were used for compound transfer into cell assay plates. All wells were back-filled to give a constant percentage of DMSO.
# (§12) The final DMSO concentration was held constant in all wells across the plate and was maintained at less than 0.5%. […] Cells treated with vehicle (DMSO) in two rows, or single compound serial dilutions in one plate columns/row served as the untreated control and single compound controls, respectively.
# (§13) Compound activity in A549, COLO205, H460, HCT116, SW48, SW620 cancer cell lines was assessed using Cell Titer-Glo® (Promega [Madison, Wis., USA]). After 72 hours incubation, the plates were treated as per package insert protocol for the Promega Luminescence ATP Detection Systems. Briefly, 25 μL of cell lysis/substrate solution (provided in kit form) was added to each well and the plate was incubated at room temperature for 10 minutes. Luminescence was measured using a PHERAstar multi-label counter (BMG Labtech [Ortenberg, Germany]) or LEADseeker (GE Healthcare Life Sciences [Piscataway, N.J., USA]).
# (§14) Numerical luminescence values were analyzed to generate EC50 curves and evaluate synergy. Raw Data reader files were uploaded along with automation workfiles that defined the plate and well contents. Percent activities were calculated for each well versus plate controls.
# (§15) Each plate representing a single drug combination was analyzed separately. First, the viability measurements were normalized by scaling the data so that the median of the negative controls was 0 and the median of the positive controls was 100.
# (§16) For the combination analysis, a response surface model was used to describe the relationship between the normalized viability and the drug concentrations. The data were fit to the model by minimizing the residual sum of squares. Based on the fitted response surface, plots of constant viability, called isobolograms, were produced.
# (§17) The Combination Index and Nonlinear Blending were used as measures of drug synergy. To calculate Combination Index the 50% isobologram (which is the dose contour that has 50% viability) was used. […] A standard procedure was created to produce a call in order to characterize the viability effects for each combination (synergy, additivity, subadditivity, or antagonism). If the Combination Index existed then these measures were used to make the call.
# SW620 cancer cells = experiment: as above; assay type: cell-based; details: DNA damaging agent combined with Compound 1; 72 h;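 further: Ten-by-ten dose matrices of both drugs in 384-well plates, luminescent ATP read-out, synergy evaluated against single-agent and DMSO vehicle controls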
# COLO205 cancer cells = experiment: as above; assay type: cell-based, human; details: DNA damaging agent combined with Compound 1; 72 h;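 further: Ten-by-ten dose matrices of both agents in duplicate plus single-agent dilutions, luminescent ATP read-out, percent activity per well relative to DMSO vehicle wells, synergy call from these matrices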
# H460 cancer cells = experiment: as above; assay type: cell-based; details: DNA damaging agent combined with Compound 1; 72 h;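 further: Ten-by-ten dose matrices of both drugs alongside single-agent dilutions, luminescence read 72 hours after compound addition, percent activity per well versus vehicle (DMSO) plate controls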
# Protocol: as §10, §11, §12, §13, §14, §15, §16, §17
smiles,measurement,setting,value
Nc1ccn([C@@H]2O[C@H](CO)[C@@H](O)C2(F)F)c(=O)n1 [Gemcitabine],"Result (combination with Compound 1, tumor growth)","Panc02 (Pancreatic); Panc02 (75 mm^3), Compound 1 60 mg/kg orally QD day 0-20, drug 5 mg/kg intraperitoneally QD on Day 0,3,6,9,12",Additive
same,CR per group,"Panc02 (Pancreatic); note to Table 9, by note order: Gemcitabine study in Panc02 (75 mm^3)","0 CR in Gemcitabine group and 0 CR in Compound 1 group, and 0 CR in Compound 1/Gemcitabine combo group"
same,"Result (combination with Compound 1, tumor growth)",DU-145 (Prostate),Additive
same,"Result (combination with Compound 1, tumor growth)","PHTXM-97Pa (Pancreatic); PHTXM-97Pa (180 mm^3), Compound 1 20 mg/kg once daily Day 1-21, drug 5 mg/kg intraperitoneally Days 1,4,8,11,15,18",subadditive
same,"Result (combination with Compound 1, tumor growth)","PHTXM-97Pa (Pancreatic); PHTXM-97Pa (180 mm^3), Compound 1 20 mg/kg once daily Day 1-21, drug 20 mg/kg intraperitoneally Days 1,4,8,11,15,18",Additive
same,"Result (combination with Compound 1, tumor growth)","PHTXM-97Pa (Pancreatic); PHTXM-97Pa (180 mm^3), Compound 1 40 mg/kg once daily Day 1-21, drug 5 mg/kg intraperitoneally Days 1,4,8,11,15,18",subadditive
same,"Result (combination with Compound 1, tumor growth)","PHTXM-97Pa (Pancreatic); PHTXM-97Pa (180 mm^3), Compound 1 40 mg/kg once daily Day 1-21, drug 20 mg/kg intraperitoneally Days 1,4,8,11,15,18",subadditive
same,"Result (combination with Compound 1, tumor growth)","PHTXM-97Pa (Pancreatic); PHTXM-97Pa (210 mm^3), Compound 1 40 mg/kg once daily Day 1-21, drug 20 mg/kg intraperitoneally Days 1,4,8,11,15,18",subadditive
same,"Result (combination with Compound 1, tumor growth)","PHTXM-97Pa (Pancreatic); PHTXM-97Pa (210 mm^3), Compound 1 40 mg/kg once daily Day 1-21, drug 40 mg/kg intraperitoneally Days 1,4,8,11,15,18",subadditive
same,"Result (combination with Compound 1, tumor growth)","PHTXM-97Pa (Pancreatic); PHTXM-97Pa (210 mm^3), Compound 1 60 mg/kg once daily Day 1-21, drug 20 mg/kg intraperitoneally Days 1,4,8,11,15,18",subadditive
same,"Result (combination with Compound 1, tumor growth)","PHTXM-97Pa (Pancreatic); PHTXM-97Pa (210 mm^3), Compound 1 60 mg/kg once daily Day 1-21, drug 40 mg/kg intraperitoneally Days 1,4,8,11,15,18",subadditive
same,"Result (combination with Compound 1, tumor growth)","[1]; PHTX-249Pa (165 mm^3), Compound 1 40 mg/kg once daily Day 1-21, drug 20 mg/kg intraperitoneally Days 1,4,8,11,15,18",Additive
same,"Result (combination with Compound 1, tumor growth)","[1]; PHTX-249Pa (165 mm^3), Compound 1 40 mg/kg once daily Day 1-21, drug 40 mg/kg intraperitoneally Days 1,4,8,11,15,18",subadditive
same,"Result (combination with Compound 1, tumor growth)","[1]; PHTX-249Pa (165 mm^3), Compound 1 60 mg/kg once daily Day 1-21, drug 20 mg/kg intraperitoneally Days 1,4,8,11,15,18",Additive
same,"Result (combination with Compound 1, tumor growth)","[1]; PHTX-249Pa (165 mm^3), Compound 1 60 mg/kg once daily Day 1-21, drug 40 mg/kg intraperitoneally Days 1,4,8,11,15,18",subadditive
same,"Result (combination with Compound 1, tumor growth)","[1]; PHTX-249Pa (180 mm^3) FIG. 6A, Compound 1 20 mg/kg once daily Day 1-21, drug 5 mg/kg intraperitoneally Days 1,4,8,11,15,18",Synergistic
same,"Result (combination with Compound 1, tumor growth)","[1]; PHTX-249Pa (180 mm^3) FIG. 6A, Compound 1 20 mg/kg once daily Day 1-21, drug 20 mg/kg intraperitoneally Days 1,4,8,11,15,18",Additive
same,"Result (combination with Compound 1, tumor growth)","[1]; PHTX-249Pa (180 mm^3) FIG. 6A, Compound 1 40 mg/kg once daily Day 1-21, drug 5 mg/kg intraperitoneally Days 1,4,8,11,15,18",Additive
same,"Result (combination with Compound 1, tumor growth)","[1]; PHTX-249Pa (180 mm^3) FIG. 6A, Compound 1 40 mg/kg once daily Day 1-21, drug 20 mg/kg intraperitoneally Days 1,4,8,11,15,18",subadditive
same,antitumor activity,"[1]; combined with Compound 1, PHTX-249 Pa human primary pancreatic xenografts, FIG. 6A",strong antitumor activity compared to either single treatment alone
same,"Call, anti-proliferative effect of combination with Compound 1, A549",A549 cancer cells,Antagonism (>2)
same,"In vitro combination effect with Compound 1, Ovary SKOV3",[2],Additive
same,"In vitro combination effect with Compound 1, Lung CALU6",CALU6 (Lung),Additive
same,"In vitro combination effect with Compound 1, Lung H-1650",H-1650 (Lung),Antagonism
same,"Call, anti-proliferative effect of combination with Compound 1, HCT116",HCT116 cancer cells,Additivity (0.7 to 1.3)
same,"Call, anti-proliferative effect of combination with Compound 1, SW620",SW620 cancer cells,Additivity (0.7 to 1.3)
same,"Call, anti-proliferative effect of combination with Compound 1, COLO205",COLO205 cancer cells,Additivity (0.7 to 1.3)
same,"Call, anti-proliferative effect of combination with Compound 1, H460",H460 cancer cells,Subadditivity (1.3 to 2)
